Columns and labels:
[1] = test system: Staphylococcus aureus NCTC 10788; assay: Zone of inhibition, seeded Mueller-Hinton agar plug-hole assay; format: cell-based; details: 10 mg compound + 200 ul sterile water per 8 mm plug hole, 37° C., 24 hours, triplicates averaged
Experimental: (§1) Pseudomonas aeruginosa NCIMB 8626 and Staphylococcus aureus NCTC 10788 were harvested. Serial 1:10 dilutions were performed to give a final concentration of 10^8 bacteria/ml. Further dilutions were made for an inoculum count, down to […], with the number of bacteria/ml determined using the pour plate method.
(§2) Two large assay plates were then set up and 140 ml of Mueller-Hinton agar was added evenly to the large assay plates and allowed to dry (15 minutes). A further 140 ml of agar was seeded with the corresponding test organism and poured over the previous agar layer. Once the agar had set (15 minutes), the plate was dried at 37° C. for 30 minutes with the lid removed. 8 mm plugs were removed from the plate by biopsy punch.
(§3) In triplicate, 10 mg of the compounds prepared in Examples 1-3 were placed onto each plug hole followed by 200 ul sterile water. The plates were then sealed and incubated at 37° C. for 24 hours. The size of the microbial, including bacterial, zone cleared was measured using a Vernier calliper gauge, triplicates were averaged: […]

[2] = test system: Pseudomonas aeruginosa NCIMB 8626; assay: as above; format: cell-based; details: 10 mg compound + 200 ul sterile water per 8 mm plug hole, 37° C., 24 hours, triplicates averaged
Experimental: as §1, §2, §3

Row | Substance | Zone of Inhibition [1] [mm] | Zone of Inhibition [2] [mm]
1 | Silver(III) Chlorhexidine (1,1′-hexamethylenebis[5-(p-chlorophenyl)biguanide] Complex [Example 1] | 6.4 | 5.4
2 | Silver(III) o-tolybiguanide Complex [Example 3] | 8.4 | 7.4
